{"source": "patent US10604541B2", "about": "“Glucokinase activators and methods of using same” (BRISTOL-MYERS SQUIBB COMPANY, priority 2016, dated 2020)", "key": {"[1]": {"test": "Pharmacokinetic study in mice (plasma and liver)", "type": "in vivo", "conditions": "male, C57BL/6J, mouse, C57/B16J mice, 10 mg/kg oral", "method": "Pharmacokinetic (PK) screening studies were carried out by methods known to one of ordinary skill in the art. For example, study compounds were administered orally to male C57 Black6j (C57B16J) mice (N=3 per time point) at 10 mg/kg as solutions in a PEG400/Cremphor EL/water (40/10/50) vehicle. The mice were fasted overnight prior to the PK study. Blood samples were taken at 0.5, 1, 2, and 4 hr post dose by cardiac bleeding. Blood samples (˜0.2 mL) were added with K2EDTA and centrifuged at 4° C. (1500-2000×g) to obtain plasma. Liver samples (N=3) were collected at 1 hr post dose. The liver tissues were homogenized with 3 volumes of water to form uniform homogenates. Both plasma and liver samples were stored at −20° C. before they were analyzed by LC/MS/MS. The plasma AUC were calculated using linear and log trapezoidal summations. The liver-to-plasma (L/P) ratio was calculated by dividing the total concentration in liver with plasma concentrations for respective mice. The average of L/P ratios from 3 mice was reported together with the standard deviation."}, "CYP450 2D6": {"biological_target": "CYP450 2D6 (Homo sapiens, UniProt P10635)", "sequence (P10635 whole entry)": "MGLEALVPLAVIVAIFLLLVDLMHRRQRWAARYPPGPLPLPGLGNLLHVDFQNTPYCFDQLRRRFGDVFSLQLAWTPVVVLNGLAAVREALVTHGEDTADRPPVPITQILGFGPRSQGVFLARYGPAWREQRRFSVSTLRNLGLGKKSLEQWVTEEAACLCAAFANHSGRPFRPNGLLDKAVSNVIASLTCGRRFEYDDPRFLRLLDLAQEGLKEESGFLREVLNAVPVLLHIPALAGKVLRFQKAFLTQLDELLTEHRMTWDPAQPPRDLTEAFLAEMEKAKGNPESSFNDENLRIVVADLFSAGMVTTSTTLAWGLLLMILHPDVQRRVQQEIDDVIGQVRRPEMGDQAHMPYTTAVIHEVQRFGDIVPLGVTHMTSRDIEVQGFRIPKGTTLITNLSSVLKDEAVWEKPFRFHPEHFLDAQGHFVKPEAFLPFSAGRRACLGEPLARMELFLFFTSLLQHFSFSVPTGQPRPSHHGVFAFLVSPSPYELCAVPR", "test": "CYP450 2D6 inhibition", "type": "in vitro ADME"}, "CYP450 2C19": {"biological_target": "CYP450 2C19 (Homo sapiens, UniProt P33261)", "sequence (P33261 whole entry)": "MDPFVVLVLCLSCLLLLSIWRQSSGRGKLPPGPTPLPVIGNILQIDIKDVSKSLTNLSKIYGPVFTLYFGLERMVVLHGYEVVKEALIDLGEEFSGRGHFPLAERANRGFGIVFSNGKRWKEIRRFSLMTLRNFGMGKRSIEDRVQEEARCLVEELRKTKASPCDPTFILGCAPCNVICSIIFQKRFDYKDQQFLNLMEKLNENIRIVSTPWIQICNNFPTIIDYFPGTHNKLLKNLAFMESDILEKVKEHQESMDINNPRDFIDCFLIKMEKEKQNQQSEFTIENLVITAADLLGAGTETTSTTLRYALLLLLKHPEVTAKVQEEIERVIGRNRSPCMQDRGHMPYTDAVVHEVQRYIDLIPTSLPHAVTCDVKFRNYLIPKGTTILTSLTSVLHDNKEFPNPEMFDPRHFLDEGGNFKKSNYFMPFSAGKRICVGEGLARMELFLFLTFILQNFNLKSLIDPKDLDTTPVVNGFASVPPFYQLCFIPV", "test": "CYP450 2C19 inhibition", "type": "in vitro ADME"}, "Mouse Glucokinase": {"biological_target": "T1, Mouse Glucokinase (Mus musculus, UniProt P52792)", "T1 sequence (P52792 1-465)": "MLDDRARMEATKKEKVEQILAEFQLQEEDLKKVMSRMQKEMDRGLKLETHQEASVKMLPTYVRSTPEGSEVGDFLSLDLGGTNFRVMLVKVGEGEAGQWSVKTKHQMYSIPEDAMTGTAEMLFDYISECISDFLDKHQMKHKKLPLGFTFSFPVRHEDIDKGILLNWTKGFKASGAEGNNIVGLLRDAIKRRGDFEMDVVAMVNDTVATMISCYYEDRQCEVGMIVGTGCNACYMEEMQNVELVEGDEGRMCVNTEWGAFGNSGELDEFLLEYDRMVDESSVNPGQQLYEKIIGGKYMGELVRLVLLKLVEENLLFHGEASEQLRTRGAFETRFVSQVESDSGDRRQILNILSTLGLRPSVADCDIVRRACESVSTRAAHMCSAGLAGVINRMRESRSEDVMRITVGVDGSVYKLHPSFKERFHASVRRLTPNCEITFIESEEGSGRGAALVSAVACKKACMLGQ", "test": "Glucokinase activation, mouse GK", "type": "biochemical"}, "[2]": {"test": "Metabolic stability, mouse", "type": "in vitro ADME"}, "CYP450 2C9": {"biological_target": "CYP450 2C9 (Homo sapiens, UniProt P11712)", "sequence (P11712 whole entry)": "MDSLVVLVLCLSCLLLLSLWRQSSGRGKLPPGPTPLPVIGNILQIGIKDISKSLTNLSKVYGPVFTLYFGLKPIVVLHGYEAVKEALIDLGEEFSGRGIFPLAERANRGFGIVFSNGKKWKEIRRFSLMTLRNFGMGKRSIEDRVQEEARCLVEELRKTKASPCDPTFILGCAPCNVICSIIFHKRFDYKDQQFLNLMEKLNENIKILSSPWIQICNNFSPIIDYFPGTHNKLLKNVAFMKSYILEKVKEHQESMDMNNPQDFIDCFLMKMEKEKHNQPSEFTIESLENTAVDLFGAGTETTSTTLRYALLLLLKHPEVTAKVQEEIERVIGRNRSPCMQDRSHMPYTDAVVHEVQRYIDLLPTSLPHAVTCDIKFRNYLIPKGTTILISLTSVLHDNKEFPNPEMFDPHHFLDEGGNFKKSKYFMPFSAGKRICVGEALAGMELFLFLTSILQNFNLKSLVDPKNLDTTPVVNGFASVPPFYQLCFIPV", "test": "CYP450 2C9 inhibition", "type": "in vitro ADME"}, "[3]": {"test": "Metabolic stability in human liver microsomes", "type": "in vitro ADME"}, "Aqueous solubility": {"test": "Aqueous solubility", "type": "physicochemical", "conditions": "aqueous medium (not further specified)"}, "[4]": {"test_system": "male DIO (diet-induced obese) C57BL/6J mice", "test": "Oral glucose tolerance test (OGTT) in DIO mice", "type": "in vivo, mouse", "method": "Oral glucose tolerance tests were carried out on male DIO (diet-induced obese) C57BL/6J mice fed a high fat diet (60% kcal from fat) for 26 weeks prior to experimentation. Mice were fasted overnight before use for experiments. A test compound or vehicle (either: 1) 40% PEG 400+10% Cremophore+50% water or 2) 10% dimethyl acetamide+10% ethanol+10% Cremophore+70% water) was given orally 60 min before oral administration of a glucose solution at a dose of 2 g/kg body weight (oral glucose tolerance test; OGTT). Blood glucose levels were measured from tail-bled samples taken at different time points before and after administration of glucose (time course of 2 hours). A time curve of the blood glucose was generated and the change from baseline area-under-the curve (ΔAUC) from 0-120 min was calculated (the time glucose administration being time zero)."}, "CYP450 2C8": {"biological_target": "T2, CYP450 2C8 (Homo sapiens, UniProt P10632)", "T2 sequence (P10632 1-490)": "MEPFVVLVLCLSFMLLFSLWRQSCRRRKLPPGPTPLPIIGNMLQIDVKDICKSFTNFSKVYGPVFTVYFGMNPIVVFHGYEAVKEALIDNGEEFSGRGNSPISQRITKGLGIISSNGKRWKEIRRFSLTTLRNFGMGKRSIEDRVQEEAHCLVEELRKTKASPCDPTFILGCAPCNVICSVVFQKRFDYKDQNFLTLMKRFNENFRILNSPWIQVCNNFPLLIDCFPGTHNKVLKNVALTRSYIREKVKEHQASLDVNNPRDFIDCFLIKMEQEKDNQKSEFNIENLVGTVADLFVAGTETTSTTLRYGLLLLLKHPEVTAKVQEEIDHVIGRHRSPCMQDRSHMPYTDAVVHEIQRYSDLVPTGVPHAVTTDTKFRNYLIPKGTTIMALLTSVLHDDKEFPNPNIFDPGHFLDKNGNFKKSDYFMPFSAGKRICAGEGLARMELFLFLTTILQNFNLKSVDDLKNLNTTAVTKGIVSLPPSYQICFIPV", "test": "CYP450 2C8 inhibition", "type": "in vitro ADME"}, "Human Glucokinase": {"biological_target": "T3, Human Glucokinase (Homo sapiens, UniProt P35557)", "T3 construct": "Full-length human hepatic GK (untagged) was expressed; made in house; host or cells: E. coli BL21 STAR (DE3)pLysS", "T3 sequence (P35557 1-466 isoform P35557-2)": "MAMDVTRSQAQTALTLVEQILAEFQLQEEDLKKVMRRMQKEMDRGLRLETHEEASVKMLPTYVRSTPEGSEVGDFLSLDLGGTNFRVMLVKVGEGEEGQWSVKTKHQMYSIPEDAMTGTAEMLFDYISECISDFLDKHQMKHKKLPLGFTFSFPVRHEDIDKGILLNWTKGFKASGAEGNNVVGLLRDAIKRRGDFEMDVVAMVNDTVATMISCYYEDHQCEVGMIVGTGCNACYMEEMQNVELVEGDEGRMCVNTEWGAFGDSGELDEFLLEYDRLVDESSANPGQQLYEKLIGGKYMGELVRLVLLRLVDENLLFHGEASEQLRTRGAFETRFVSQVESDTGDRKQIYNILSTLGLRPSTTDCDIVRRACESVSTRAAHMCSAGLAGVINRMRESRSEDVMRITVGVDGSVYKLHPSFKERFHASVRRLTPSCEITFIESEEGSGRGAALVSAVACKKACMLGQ", "test": "Glucokinase tandem enzymatic assay (human GK)", "type": "biochemical", "method": "Enzymatic activity of human glucokinase (GK) was measured by incubating GK, ATP, and glucose for discrete time periods followed by quenching with EDTA (ethylenediamine tetra-acetic acid). Relative amounts of product glucose-6-phosphate (G6P) were measured by then running a detection assay using G6P dehydrogenase and measuring the conversion of ThioNAD (thio-nicotinamide adenine dinucleotide) to ThioNADH (thio-dihydronicotinamide adenine dinucleotide) at a wavelength of 405 nm. This “uncoupled” enzymatic reaction is denoted as the GK “tandem” assay. Activation of GK by the compound can be assessed using this assay. The GK tandem assay protocol described below was followed using a range of activator compound concentrations from 0 to 100 μM at 5 and 12 mM of glucose. Human full-length glucokinase (GK, 15 nM) was incubated with 5 or 12 mM glucose in a 384 well black microtiter plate with a clear bottom. To initiate the GK reaction, magnesium-ATP (3 mM final concentration) was added to GK in buffer (final buffer conditions of 25 mM HEPES buffer, pH 7.1, containing 1 mM dithiothreitol and 5% DMSO). The total reaction volume was 20 μL. The reaction was allowed to proceed for ten minutes and was then quenched with 5 μL EDTA; 45 mM final). The components of the detection reaction, ThioNAD and G6PDH (glucose-6-phosphate dehydrogenase) (final concentrations of 650 μM and 3.33 Units, respectively), were then added together in a volume of 25 μL, (to give a total volume of 50 μL). Absorbance measurements were made at 405 nm on a SPECTRAMAX® Plus 384 absorbance plate reader (Molecular Devices). Absorbance was read, background glucose-6-phosphate levels were subtracted, after which activation was calculated as a percentage of control activity. Control activity was determined using GK in the presence of vehicle (DMSO), with background glucose-6-phosphate subtracted. Background glucose-6-phosphate was determined by pre-quenching GK with EDTA prior to reaction initiation with ATP. […]"}, "CYP450 1A2": {"biological_target": "T4, CYP450 1A2 (Homo sapiens, UniProt P05177)", "T4 sequence (P05177 1-516)": "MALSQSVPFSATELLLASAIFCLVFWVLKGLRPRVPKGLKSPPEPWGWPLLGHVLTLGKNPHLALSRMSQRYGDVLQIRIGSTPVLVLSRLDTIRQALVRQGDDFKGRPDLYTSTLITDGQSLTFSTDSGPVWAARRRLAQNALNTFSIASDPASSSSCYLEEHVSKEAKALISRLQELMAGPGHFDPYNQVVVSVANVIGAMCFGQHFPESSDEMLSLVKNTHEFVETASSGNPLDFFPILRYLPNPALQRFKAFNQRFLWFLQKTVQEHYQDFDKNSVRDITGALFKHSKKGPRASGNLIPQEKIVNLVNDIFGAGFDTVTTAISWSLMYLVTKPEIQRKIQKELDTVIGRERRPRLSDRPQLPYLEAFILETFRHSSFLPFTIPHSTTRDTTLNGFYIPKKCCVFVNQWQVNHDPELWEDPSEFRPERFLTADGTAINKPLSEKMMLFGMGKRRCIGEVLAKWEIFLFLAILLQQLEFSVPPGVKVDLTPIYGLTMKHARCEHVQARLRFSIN", "test": "CYP450 1A2 inhibition", "type": "in vitro ADME"}, "CYP450 3A4": {"biological_target": "CYP450 3A4 (Homo sapiens, UniProt P08684)", "sequence (P08684 whole entry)": "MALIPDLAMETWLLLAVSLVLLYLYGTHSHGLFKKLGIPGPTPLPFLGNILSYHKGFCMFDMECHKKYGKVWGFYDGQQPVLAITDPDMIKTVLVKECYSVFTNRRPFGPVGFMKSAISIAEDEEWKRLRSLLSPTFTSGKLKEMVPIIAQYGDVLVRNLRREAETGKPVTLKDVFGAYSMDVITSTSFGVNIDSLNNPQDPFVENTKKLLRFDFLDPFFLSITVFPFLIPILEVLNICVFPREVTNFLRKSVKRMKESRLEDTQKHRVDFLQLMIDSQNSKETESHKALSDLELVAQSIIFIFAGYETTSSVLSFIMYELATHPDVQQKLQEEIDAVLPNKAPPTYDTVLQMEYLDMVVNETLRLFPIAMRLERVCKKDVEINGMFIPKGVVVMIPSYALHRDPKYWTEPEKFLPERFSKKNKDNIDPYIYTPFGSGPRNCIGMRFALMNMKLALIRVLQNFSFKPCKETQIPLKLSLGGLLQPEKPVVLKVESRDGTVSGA", "test": "CYP450 3A4 inhibition", "type": "in vitro ADME"}}, "note": "Like-named read-outs stand apart in the source and are kept apart here.", "data": [{"smiles": "CC[C@@H](COC)Oc1cc(Oc2ccc(S(C)(=O)=O)nc2)cc(C(=O)Nc2nc(CP3(=O)OCCCO3)cs2)c1", "note": "[Example 1, 3-(((1S)-1-(methoxymethyl)propyl)oxy)-5-((6-(methylsulfonyl)-3-pyridinyl)oxy)-N-(4-((2-oxido-1,3,2-dioxaphosphinan-2-yl)methyl)-1,3-thiazol-2-yl)benzamide]", "values": [{"measurement": "Kp at 1 h", "setting": "[1]; liver/plasma, po, 10 mg/kg, read-out: Liver/Plasma ratio", "value": "~39"}, {"measurement": "AUC(0-t)", "setting": "[1]; plasma, 0-4 hr", "value": 1.53, "unit": "µM·h"}, {"measurement": "concentration at 0.5 h", "setting": "[1]; plasma, 0.5 hr post dose", "value": "604 ± 234", "unit": "nM"}, {"measurement": "concentration at 1 h", "setting": "[1]; plasma, 1 hr post dose, read-out: Plasma (1 hr)", "value": "631 ± 286", "unit": "nM"}, {"measurement": "concentration at 2 h", "setting": "[1]; plasma, 2 hr post dose", "value": "398 ± 193", "unit": "nM"}, {"measurement": "concentration at 4 h", "setting": "[1]; plasma, 4 hr post dose", "value": "193 ± 133", "unit": "nM"}, {"measurement": "concentration at 1 h", "setting": "[1]; liver concentration 1 hr post dose, read-out: Liver (1 hr)", "value": "21600 ± 1360", "unit": "nM"}, {"measurement": "IC50", "setting": "CYP450 2D6", "value": "> 40", "unit": "µM"}, {"measurement": "IC50", "setting": "CYP450 2C19", "value": "> 40", "unit": "µM"}, {"measurement": "EC50", "setting": "Mouse Glucokinase", "value": 0.037, "unit": "µM"}, {"measurement": "Emax", "setting": "Mouse Glucokinase; read-out: Mouse Glucokinase Ymax (maximal activation)", "value": 194, "unit": "%"}, {"measurement": "Metabolic Stability Mouse (0.5 μM)", "setting": "[2]", "value": 92, "unit": "%"}, {"measurement": "IC50", "setting": "CYP450 2C9", "value": 26.8, "unit": "µM"}, {"measurement": "Metabolic Stability Human Liver Microsomes (0.5 μM)", "setting": "[3]", "value": 80, "unit": "%"}, {"measurement": "solubility", "setting": "Aqueous solubility", "value": 74, "unit": "µg/mL"}, {"measurement": "reduction in glucose AUC (after an oral glucose tolerance test in diet-induced obese mice)", "setting": "[4]; 10 μmol/kg dose", "value": 47, "unit": "%"}, {"measurement": "Glucose lowering (AUC) (120 min)", "setting": "[4]; OGTT, DIO mice, oral dose 10 μmol/kg, AUC 0-120 min", "value": "−47", "unit": "%"}, {"measurement": "IC50", "setting": "CYP450 2C8", "value": 24.6, "unit": "µM"}, {"measurement": "EC50", "setting": "Human Glucokinase", "value": 0.036, "unit": "µM"}, {"measurement": "IC50", "setting": "Human Glucokinase", "value": 0.095, "unit": "µM"}, {"measurement": "Emax", "setting": "Human Glucokinase; read-out: Human Glucokinase Ymax (maximal activation)", "value": 194, "unit": "%"}, {"measurement": "IC50", "setting": "CYP450 1A2", "value": "> 40", "unit": "µM"}, {"measurement": "IC50", "setting": "CYP450 3A4", "value": "> 40", "unit": "µM"}]}]}
